By inhibition is commonly meant the drop in the measured response relative to a control, in per cent. As a reminder, the IC50 is the concentration that gives 50% inhibition. A high value points to weaker potency.

Consider six molecules from the kinase profiling compilation of Christmann-Franck et al. (2016).

One experiment has as its target PLK2 (human) (UniProt Q9NYY3). The experiment is described as follows: SelectScreen, TR FRET. The conditions noted are these: compound 10.0 µM. Background: In TR-FRET formats the signal depends on donor and acceptor labels being close together.
The next experiment concerns the target PRKACA (human) (UniProt P17612). The experiment is described as follows: SelectScreen, TR FRET. As to conditions: compound 10.0 µM.
The next experiment concerns the target PLK3 (human) (UniProt Q9H4B4). As to the kind of experiment: SelectScreen, TR FRET. As to conditions: compound 10.0 µM.
In another experiment the target is INSR (human) (UniProt P06213). The experiment is described as follows: SelectScreen, TR FRET. The conditions noted are these: compound 10.0 µM.
For another experiment, the target named is PLK1 (human) (UniProt P53350). As to the kind of experiment: SelectScreen, TR FRET. The conditions noted are these: compound 10.0 µM.
In a further experiment the target is CDK1 CCNB1 (human) (UniProt P06493+P14635). The experiment is described as follows: SelectScreen, TR FRET. The conditions noted are these: compound 10.0 µM.
In a further experiment the target is AKT1 (human) (UniProt P31749). The experiment is described as follows: SelectScreen, TR FRET. As to conditions: compound 10.0 µM.
The target of another experiment is PIK3CA PIK3R1 (human) (UniProt P27986+P42336). As to the kind of experiment: SelectScreen, TR FRET. As to conditions: compound 10.0 µM.
A further experiment has as its target PRKCB1 (human) (UniProt P05771). The experiment is described as follows: SelectScreen, TR FRET. The conditions noted are these: compound 10.0 µM.
Another experiment addresses RAF1 (human) (UniProt P04049). The experiment is described as follows: SelectScreen, TR FRET. The conditions noted are these: compound 10.0 µM.
A further experiment deals with CLK1 (human) (UniProt P49759). The experiment is described as follows: SelectScreen, TR FRET. The conditions noted are these: compound 10.0 µM.
In another experiment the target is GSK3B (human) (UniProt P49841). As to the kind of experiment: SelectScreen, TR FRET. As to conditions: compound 10.0 µM.
In another experiment the target is MAPK10 (human) (UniProt P53779). The experiment is described as follows: SelectScreen, TR FRET. The conditions noted are these: compound 10.0 µM.
In the next experiment the target is DYRK1B (human) (UniProt Q9Y463). The experiment is described as follows: SelectScreen, TR FRET. The conditions noted are these: compound 10.0 µM.
Another experiment concerns the target CAMK2A (human) (UniProt Q9UQM7). As to the kind of experiment: SelectScreen, TR FRET. The conditions noted are these: compound 10.0 µM.
Another experiment addresses CDK5 CDK5R1 p25 (human) (UniProt Q15078+Q00535). As to the kind of experiment: SelectScreen, TR FRET. The conditions noted are these: compound 10.0 µM.
Another experiment deals with ERBB4 (human) (UniProt Q15303). As to the kind of experiment: SelectScreen, TR FRET. As to conditions: compound 10.0 µM.
For a further experiment, the target named is MAPK1 (human) (UniProt P28482). The experiment is described as follows: SelectScreen, TR FRET. As to conditions: compound 10.0 µM.
The next experiment has as its target STK16 (human) (UniProt O75716). The experiment is described as follows: SelectScreen, TR FRET. The conditions noted are these: compound 10.0 µM.
Another experiment addresses CDK2 CCNA2 (human) (UniProt P24941+P20248). As to the kind of experiment: SelectScreen, TR FRET. The conditions noted are these: compound 10.0 µM.
For another experiment, the target named is IRAK4 (human) (UniProt Q9NWZ3). The experiment is described as follows: SelectScreen, TR FRET. As to conditions: compound 10.0 µM.
For the next experiment, the target named is RIPK2 (human) (UniProt O43353). As to the kind of experiment: SelectScreen, TR FRET. As to conditions: compound 10.0 µM.
For another experiment, the target named is SYK (human) (UniProt P43405). As to the kind of experiment: SelectScreen, TR FRET. As to conditions: compound 10.0 µM.
The target in another experiment is PAK4 (human) (UniProt O96013). The experiment is described as follows: SelectScreen, TR FRET. The conditions noted are these: compound 10.0 µM.
Experiment [1] addresses LRRK2 (human) (UniProt Q5S007). The experiment is described as follows: SelectScreen, TR FRET. The conditions noted are these: compound 10.0 µM.
For the next experiment, the target named is ROCK2 (human) (UniProt O75116). The experiment is described as follows: SelectScreen, TR FRET. The conditions noted are these: compound 10.0 µM.
In a further experiment the target is FLT3 (human) (UniProt P36888). The experiment is described as follows: SelectScreen, TR FRET. As to conditions: compound 10.0 µM.
The target of another experiment is TTK (human) (UniProt P33981). The experiment is described as follows: SelectScreen, TR FRET. As to conditions: compound 10.0 µM.
A further experiment has as its target ABL1 (human) (UniProt P00519). The experiment is described as follows: SelectScreen, TR FRET. The conditions noted are these: compound 10.0 µM.
A further experiment concerns the target PTK2B (human) (UniProt Q14289). The experiment is described as follows: SelectScreen, TR FRET. As to conditions: compound 10.0 µM.
For experiment [2], the target named is CSF1R (human) (UniProt P07333). As to the kind of experiment: SelectScreen, TR FRET. As to conditions: compound 10.0 µM.
In another experiment the target is AURKA (human) (UniProt O14965). The experiment is described as follows: SelectScreen, TR FRET. The conditions noted are these: compound 10.0 µM.
The target of a further experiment is MARK2 (human) (UniProt Q7KZI7). As to the kind of experiment: SelectScreen, TR FRET. As to conditions: compound 10.0 µM.
The target of another experiment is LCK (human) (UniProt P06239). The experiment is described as follows: SelectScreen, TR FRET. As to conditions: compound 10.0 µM.
Another experiment concerns the target RET (human) (UniProt P07949). As to the kind of experiment: SelectScreen, TR FRET. As to conditions: compound 10.0 µM.
In the next experiment the target is JAK1 JH1 JH2 (human) (UniProt P23458). As to the kind of experiment: SelectScreen, TR FRET. As to conditions: compound 10.0 µM.
Experiment [3] concerns the target PDGFRA (human) (UniProt P16234). As to the kind of experiment: SelectScreen, TR FRET. As to conditions: compound 10.0 µM.
The next experiment has as its target MAP3K7 TAB1 (human) (UniProt Q15750+O43318). As to the kind of experiment: SelectScreen, TR FRET. As to conditions: compound 10.0 µM.
Another experiment deals with CHEK1 (human) (UniProt O14757). As to the kind of experiment: SelectScreen, TR FRET. As to conditions: compound 10.0 µM.
In the next experiment the target is STK3 (human) (UniProt Q13188). The experiment is described as follows: SelectScreen, TR FRET. The conditions noted are these: compound 10.0 µM.
Experiment [4] deals with LRRK2 (human) (UniProt Q5S007). As to the kind of experiment: HTRF.
Experiment [5] concerns the target LRRK2 (human), Q5S007 [G2019S]. As to the kind of experiment: HTRF.
Experiment [6] has as its target CSF1R (human) (UniProt P07333). As to the kind of experiment: HTRF.
The target of experiment [7] is PDGFRA (human) (UniProt P16234). The experiment is described as follows: HTRF.

PLK3 (human), sequence (Q9H4B4 whole entry, looked up): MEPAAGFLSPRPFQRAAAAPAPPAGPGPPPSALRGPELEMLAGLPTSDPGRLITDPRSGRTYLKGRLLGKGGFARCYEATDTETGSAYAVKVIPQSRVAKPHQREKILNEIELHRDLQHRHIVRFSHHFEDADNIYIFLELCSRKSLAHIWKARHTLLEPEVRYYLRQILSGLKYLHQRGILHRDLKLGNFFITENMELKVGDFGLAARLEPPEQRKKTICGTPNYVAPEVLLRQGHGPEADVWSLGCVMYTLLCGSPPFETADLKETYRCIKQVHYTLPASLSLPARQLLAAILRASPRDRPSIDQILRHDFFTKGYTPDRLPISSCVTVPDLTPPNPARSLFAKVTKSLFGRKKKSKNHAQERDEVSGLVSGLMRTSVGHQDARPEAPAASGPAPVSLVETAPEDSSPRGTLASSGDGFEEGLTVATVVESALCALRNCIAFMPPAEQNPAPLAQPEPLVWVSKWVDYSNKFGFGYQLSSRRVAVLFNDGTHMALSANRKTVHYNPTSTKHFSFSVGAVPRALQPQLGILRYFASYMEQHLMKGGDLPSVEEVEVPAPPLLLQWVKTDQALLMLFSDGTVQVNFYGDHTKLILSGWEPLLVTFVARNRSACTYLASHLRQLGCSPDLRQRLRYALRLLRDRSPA
PRKCB1 (human), sequence (P05771 whole entry, looked up): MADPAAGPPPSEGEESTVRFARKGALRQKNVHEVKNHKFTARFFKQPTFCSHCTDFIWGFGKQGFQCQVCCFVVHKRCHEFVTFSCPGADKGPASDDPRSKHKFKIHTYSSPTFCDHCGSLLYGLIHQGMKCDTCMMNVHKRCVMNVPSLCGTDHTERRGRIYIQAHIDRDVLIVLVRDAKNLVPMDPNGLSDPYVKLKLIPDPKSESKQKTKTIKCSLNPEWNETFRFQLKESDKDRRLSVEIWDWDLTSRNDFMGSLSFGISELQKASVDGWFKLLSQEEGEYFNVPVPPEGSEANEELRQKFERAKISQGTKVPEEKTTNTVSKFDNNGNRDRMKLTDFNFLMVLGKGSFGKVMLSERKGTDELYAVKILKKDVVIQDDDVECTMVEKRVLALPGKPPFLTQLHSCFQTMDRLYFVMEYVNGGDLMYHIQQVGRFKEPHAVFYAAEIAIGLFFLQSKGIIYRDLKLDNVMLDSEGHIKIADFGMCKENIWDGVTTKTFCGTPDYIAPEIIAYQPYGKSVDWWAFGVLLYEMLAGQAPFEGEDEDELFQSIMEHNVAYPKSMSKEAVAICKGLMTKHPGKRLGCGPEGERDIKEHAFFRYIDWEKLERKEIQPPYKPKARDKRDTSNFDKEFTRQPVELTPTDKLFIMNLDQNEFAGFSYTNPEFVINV
PLK1 (human), sequence (P53350 whole entry, looked up): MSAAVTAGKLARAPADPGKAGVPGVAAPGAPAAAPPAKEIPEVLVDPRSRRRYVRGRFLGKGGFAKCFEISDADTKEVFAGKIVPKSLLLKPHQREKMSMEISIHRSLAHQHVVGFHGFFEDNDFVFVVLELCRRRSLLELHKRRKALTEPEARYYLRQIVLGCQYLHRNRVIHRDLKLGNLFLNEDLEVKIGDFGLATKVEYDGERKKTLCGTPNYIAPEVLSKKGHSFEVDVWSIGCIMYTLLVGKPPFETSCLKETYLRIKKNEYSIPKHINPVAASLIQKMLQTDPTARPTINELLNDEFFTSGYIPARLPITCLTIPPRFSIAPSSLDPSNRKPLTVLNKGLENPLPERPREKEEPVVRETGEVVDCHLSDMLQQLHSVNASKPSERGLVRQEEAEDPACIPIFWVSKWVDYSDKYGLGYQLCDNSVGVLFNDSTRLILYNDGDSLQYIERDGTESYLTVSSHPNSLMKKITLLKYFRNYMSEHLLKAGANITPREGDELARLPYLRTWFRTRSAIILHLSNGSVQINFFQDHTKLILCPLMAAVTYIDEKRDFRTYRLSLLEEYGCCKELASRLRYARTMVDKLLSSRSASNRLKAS
PIK3CA PIK3R1 (human), sequence (P27986 whole entry, looked up): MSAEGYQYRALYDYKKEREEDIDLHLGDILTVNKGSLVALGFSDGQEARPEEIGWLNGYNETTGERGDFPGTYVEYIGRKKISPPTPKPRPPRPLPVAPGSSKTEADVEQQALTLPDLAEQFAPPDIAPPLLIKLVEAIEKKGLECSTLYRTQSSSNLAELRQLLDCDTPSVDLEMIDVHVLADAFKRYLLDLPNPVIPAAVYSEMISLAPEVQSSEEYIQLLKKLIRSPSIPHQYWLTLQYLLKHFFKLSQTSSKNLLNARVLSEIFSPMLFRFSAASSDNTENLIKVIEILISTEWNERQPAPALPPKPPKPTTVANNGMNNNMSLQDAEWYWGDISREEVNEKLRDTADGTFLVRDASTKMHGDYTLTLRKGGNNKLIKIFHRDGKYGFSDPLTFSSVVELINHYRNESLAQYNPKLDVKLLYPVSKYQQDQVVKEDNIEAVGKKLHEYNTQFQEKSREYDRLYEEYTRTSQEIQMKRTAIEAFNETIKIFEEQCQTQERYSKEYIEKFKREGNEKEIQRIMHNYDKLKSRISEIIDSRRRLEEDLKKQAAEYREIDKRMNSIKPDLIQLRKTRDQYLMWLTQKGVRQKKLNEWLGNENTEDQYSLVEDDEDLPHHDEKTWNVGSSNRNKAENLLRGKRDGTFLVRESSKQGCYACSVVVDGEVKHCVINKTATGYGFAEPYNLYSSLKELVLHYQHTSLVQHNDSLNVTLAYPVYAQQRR
PIK3CA PIK3R1 (human), sequence (P42336 whole entry, looked up): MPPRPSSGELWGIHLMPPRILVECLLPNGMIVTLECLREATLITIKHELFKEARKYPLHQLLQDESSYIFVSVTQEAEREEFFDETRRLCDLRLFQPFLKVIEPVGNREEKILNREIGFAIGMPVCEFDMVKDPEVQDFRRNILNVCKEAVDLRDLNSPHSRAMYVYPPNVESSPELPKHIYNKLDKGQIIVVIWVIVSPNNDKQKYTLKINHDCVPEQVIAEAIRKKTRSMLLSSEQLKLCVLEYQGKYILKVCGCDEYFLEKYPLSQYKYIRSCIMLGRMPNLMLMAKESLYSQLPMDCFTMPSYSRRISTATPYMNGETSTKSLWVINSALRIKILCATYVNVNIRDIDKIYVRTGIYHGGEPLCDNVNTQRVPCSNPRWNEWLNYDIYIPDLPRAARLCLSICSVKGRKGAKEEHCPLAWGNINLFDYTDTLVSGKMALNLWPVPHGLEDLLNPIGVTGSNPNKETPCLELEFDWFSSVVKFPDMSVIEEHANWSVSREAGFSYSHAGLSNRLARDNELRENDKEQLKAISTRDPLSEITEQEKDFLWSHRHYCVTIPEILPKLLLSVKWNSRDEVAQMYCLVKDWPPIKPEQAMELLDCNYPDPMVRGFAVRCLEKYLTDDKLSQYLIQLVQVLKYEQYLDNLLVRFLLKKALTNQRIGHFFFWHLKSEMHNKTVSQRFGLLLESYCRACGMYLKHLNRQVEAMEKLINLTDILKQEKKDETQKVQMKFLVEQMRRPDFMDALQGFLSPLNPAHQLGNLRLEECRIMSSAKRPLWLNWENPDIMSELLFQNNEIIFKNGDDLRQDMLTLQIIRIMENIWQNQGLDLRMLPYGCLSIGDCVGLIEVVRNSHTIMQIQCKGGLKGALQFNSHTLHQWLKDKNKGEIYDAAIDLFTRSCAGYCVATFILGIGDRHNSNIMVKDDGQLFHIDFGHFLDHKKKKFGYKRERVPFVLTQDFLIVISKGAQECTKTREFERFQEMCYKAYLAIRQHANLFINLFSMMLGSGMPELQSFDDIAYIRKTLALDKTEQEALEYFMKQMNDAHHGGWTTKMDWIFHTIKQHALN
CDK1 CCNB1 (human), sequence (P06493 whole entry, looked up): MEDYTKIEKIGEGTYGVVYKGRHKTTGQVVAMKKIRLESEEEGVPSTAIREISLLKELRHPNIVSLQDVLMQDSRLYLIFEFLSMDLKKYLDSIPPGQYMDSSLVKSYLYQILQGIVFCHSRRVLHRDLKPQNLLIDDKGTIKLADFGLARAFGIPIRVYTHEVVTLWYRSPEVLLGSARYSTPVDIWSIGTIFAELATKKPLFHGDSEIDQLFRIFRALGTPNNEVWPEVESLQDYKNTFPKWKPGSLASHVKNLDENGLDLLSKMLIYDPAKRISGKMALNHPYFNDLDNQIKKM
CDK1 CCNB1 (human), sequence (P14635 whole entry, looked up): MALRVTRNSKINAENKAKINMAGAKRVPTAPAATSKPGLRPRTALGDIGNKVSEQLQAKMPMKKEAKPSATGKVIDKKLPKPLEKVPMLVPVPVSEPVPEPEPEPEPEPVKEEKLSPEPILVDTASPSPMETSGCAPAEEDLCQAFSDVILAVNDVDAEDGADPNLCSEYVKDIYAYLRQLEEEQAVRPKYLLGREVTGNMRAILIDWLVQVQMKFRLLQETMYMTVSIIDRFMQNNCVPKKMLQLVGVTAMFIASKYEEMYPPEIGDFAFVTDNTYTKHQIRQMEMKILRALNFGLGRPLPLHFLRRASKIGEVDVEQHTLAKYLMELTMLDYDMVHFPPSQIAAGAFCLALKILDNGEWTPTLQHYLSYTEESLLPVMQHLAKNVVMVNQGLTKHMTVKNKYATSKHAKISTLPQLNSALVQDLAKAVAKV
CDK2 CCNA2 (human), sequence (P20248 whole entry, looked up, other chains not shown): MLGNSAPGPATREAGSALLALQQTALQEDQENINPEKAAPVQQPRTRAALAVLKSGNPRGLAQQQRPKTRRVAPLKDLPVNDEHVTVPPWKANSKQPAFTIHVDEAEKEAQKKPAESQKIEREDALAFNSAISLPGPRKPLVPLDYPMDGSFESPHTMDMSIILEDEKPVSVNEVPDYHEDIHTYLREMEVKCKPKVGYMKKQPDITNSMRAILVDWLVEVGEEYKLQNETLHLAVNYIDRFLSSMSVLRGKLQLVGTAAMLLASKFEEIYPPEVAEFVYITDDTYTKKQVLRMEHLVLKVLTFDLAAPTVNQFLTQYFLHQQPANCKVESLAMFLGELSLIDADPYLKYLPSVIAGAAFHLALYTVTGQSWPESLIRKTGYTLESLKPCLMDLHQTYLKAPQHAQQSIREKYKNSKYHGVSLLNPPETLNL

Regarding `CC(C)Nc1c(C(N)=O)cnc2cc(-c3ccc(S(C)(=O)=O)cc3)ccc12`, the inhibition against PLK2 (human) was determined as 7.12%; at PRKACA (human) it was 5.91%; on PLK3 (human), 0.957%; at INSR (human) it was 3.68%; against PLK1 (human), 0.631%; on CDK1 CCNB1 (human), 1.38%. Moreover, the inhibition against AKT1 (human) was 4.75%; on PIK3CA PIK3R1 (human), -1.65%; at PRKCB1 (human), 8.27%; on RAF1 (human), 16.7%; at CLK1 (human) it was 1.75%; against GSK3B (human), 6.45%. Further, the inhibition was 4.17% at MAPK10 (human), 9.19% against DYRK1B (human), -0.0898% at CAMK2A (human) and 2.45% on CDK5 CDK5R1 p25 (human).

As for `CC(C)Nc1c(C(N)=O)nnc2cc(-c3ccncc3)ccc12`, the inhibition at ERBB4 (human) was 22.3%; against PLK3 (human), -0.393%; on MAPK1 (human) it was 22.7%; at PLK1 (human), 33.4%; against AKT1 (human), 12.7%; against CAMK2A (human), 13.6%.

For `C[C@@H](Nc1c(C(N)=O)nnc2cc(-c3ccc(S(C)(=O)=O)cc3)ccc12)C1CC1`, the inhibition against PLK2 (human) is 17.2%; against PRKACA (human), -0.763%; on ERBB4 (human), 11.7%; against PLK3 (human) it was 4.63%; against INSR (human) it was 0.279%; at STK16 (human), -47.1%. In addition, the inhibition against MAPK1 (human) was -52.2%; against CDK2 CCNA2 (human), -48.5%; on IRAK4 (human) it was 0.691%; at PLK1 (human) it was 1.06%; at RIPK2 (human), 28.4%; against CDK1 CCNB1 (human), -2.77%. Besides, the inhibition on AKT1 (human) came out at 4.06%; on PIK3CA PIK3R1 (human), 9.68%; against PRKCB1 (human) it was 0.123%; against RAF1 (human), 21.3%; against CLK1 (human), 5.47%; at GSK3B (human), 28.6%. Further, the inhibition was 20.5% at MAPK10 (human), 2.7% at DYRK1B (human), 14.6% at CAMK2A (human) and -16.4% at CDK5 CDK5R1 p25 (human).

Turning to `CC(C)Nc1c(C(N)=O)nnc2ccc(-c3ccncc3)cc12`, the figures for the inhibition against ERBB4 (human) and at INSR (human) were 20.6% and 13.3%, respectively.

For the molecule `CS(=O)(=O)c1ccc(-c2ccc3c(NC4CCC4)c(C(N)=O)nnc3c2)cc1`, the inhibition at PLK2 (human) was 10.6%; against PRKACA (human), 0.0814%; at ERBB4 (human) it was 3.89%; against PLK3 (human) it was 9.8%; against INSR (human), 7.17%; on MAPK1 (human), 2.96%. Further, the inhibition was 2.69% at CDK2 CCNA2 (human); -6.26% against IRAK4 (human); 13.7% on PLK1 (human); 7.35% at CDK1 CCNB1 (human); 4.88% against AKT1 (human); 1.77% on PIK3CA PIK3R1 (human). The inhibition against PRKCB1 (human) is -1.63%; against CLK1 (human) it was 13.7%; against CAMK2A (human), 10.5%; against CDK5 CDK5R1 p25 (human) it was -0.613%.

As to `CC(C)Nc1c(C(N)=O)nnc2cc(-c3ccc(N4CCOCC4)cc3)ccc12`, the inhibition on SYK (human) is 81.4%; against PAK4 (human) it was 59.5%; on PLK2 (human), 5.59%; on PRKACA (human), -1.97%; against LRRK2 (human) [1], 98.6%; at ERBB4 (human), 14.7%. For the same molecule, the inhibition was -15.6% on PLK3 (human); -0.801% against INSR (human); 78% against ROCK2 (human); 39.9% against STK16 (human); 98.9% against FLT3 (human); 66.6% against TTK (human). Besides, the inhibition was -5.26% at MAPK1 (human); 55.5% against ABL1 (human); 5.12% against CDK2 CCNA2 (human); 17.5% against IRAK4 (human); 38.9% on PTK2B (human); 97.3% against CSF1R (human) [2]. The inhibition against PLK1 (human) was 3.31%; on RIPK2 (human), 44.4%; against AURKA (human), 80.8%; against CDK1 CCNB1 (human) it was 2.62%; at MARK2 (human) it was 80.5%; against AKT1 (human), 1.33%. Also, the inhibition is 15.2% at PIK3CA PIK3R1 (human); 74.7% at LCK (human); -0.227% against PRKCB1 (human); 27% against RAF1 (human); 82.8% against RET (human); 4.04% at CLK1 (human). The inhibition at JAK1 JH1 JH2 (human) was 72.3%; on GSK3B (human), 42.2%; on PDGFRA (human) [3] it was 97.5%; against MAPK10 (human), 16.6%; against DYRK1B (human), 6.79%; on MAP3K7 TAB1 (human), 67.1%. Moreover, the inhibition worked out at 93.2% on CHEK1 (human), 17.4% against CAMK2A (human), 3.19% at CDK5 CDK5R1 p25 (human) and 41.9% against STK3 (human). For the same molecule, the IC50 against LRRK2 (human) [4] was 9 nM; in experiment [5] it was 12 nM; against CSF1R (human) [6], 22 nM; at PDGFRA (human) [7], 262 nM.
